The target of one data set is 5HT4 receptor (Homo sapiens, UniProt Q13639). The following applies: from the cited literature; cited from earlier work.
The nature of data set [1]: Bulk density of the small-particle size HCl salt. The data set is classed as physicochemical. As to conditions: densifies on addition of water. The text has this:
The fourth aspect of the newly recognised problem is that the small-particle size SB-207266 HCl salt has a low bulk density, densifying on the addition of water. This means that less material can be added to a mixer of fixed volume, leading to a less efficient manufacturing process as large volumes of equipment have to be used for relatively small volumes of drug (smaller throughput in plant).

Data set [2] is described as follows: Particle size (DV 90/50/10) of batches of SB-207266-A made by the Description 1 process. The data set is classed as physicochemical. As to conditions: for DV 10 / DV 50 / DV 90: individual batch, hydrochloride; for DV 10: 10% by volume of the material is less than this size; for DV 50: 50% by volume of the material is less than this size; for DV 90: 90% by volume of the material is less than this size. The text has this:
The first aspect of the newly recognised problem is that such processes produce the SB 207266 hydrochloride salt in the form of particles of extremely small particle size.
DV 90, DV 50 and DV 10 respectively mean that 90%, 50% and 10% by volume of the material is less than the micron size specified.

Data set [3] can be described thus: Cohesiveness and flowability of drug substance and granules. It is filed as physicochemical. As to conditions: HCl salt crystallised from ethanol/IMS with C5-C10 hydrocarbon. The text has this: The second aspect of the newly recognised problem, is the discovery that the SB 207266 HCl salt produced by these processes is very cohesive and has poor flowability/flow characteristics.

Counter-ions that a name gives are not always drawn.

Chain of 5HT4 receptor (Q13639 whole entry): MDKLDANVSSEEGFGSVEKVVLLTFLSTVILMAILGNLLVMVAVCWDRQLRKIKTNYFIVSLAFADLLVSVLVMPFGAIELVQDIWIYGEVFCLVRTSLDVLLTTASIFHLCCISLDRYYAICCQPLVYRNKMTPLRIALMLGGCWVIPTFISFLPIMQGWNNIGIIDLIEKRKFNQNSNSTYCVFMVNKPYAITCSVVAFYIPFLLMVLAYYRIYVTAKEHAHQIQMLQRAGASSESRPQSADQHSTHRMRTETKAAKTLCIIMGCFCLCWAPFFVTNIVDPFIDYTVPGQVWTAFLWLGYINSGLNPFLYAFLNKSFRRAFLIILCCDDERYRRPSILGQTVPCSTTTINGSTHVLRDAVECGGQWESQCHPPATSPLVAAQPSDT

`CCCCN1CCC(CNC(=O)c2c3n(c4ccccc24)CCCO3)CC1` [SB 207266, N-[(1-^nbutyl-4-piperidinyl)methyl]-3,4-dihydro-2H-[1,3]oxazino[3,2-a]indole-10-carboxamide]: the “selectivity for the 5HT4 receptor over other 5HT receptors” value on 5HT4 receptor is “highly selective”.
As for `CCCCN1CCC(CNC(=O)c2c3n(c4ccccc24)CCCO3)CC1` [SB-207266-A, N-[(1-butyl-4-piperidinyl)methyl]-3,4-dihydro-2H-[1,3]-oxazino[3,2-α]indole-10-carboxamide hydrochloride], the bulk density result in data set [1] is on record as “low”. Also, in data set [2] (average of the five batches), the “DV 10, average of batches” value came to 1.5 μm; the “DV 50, average of batches” value is 5.8 μm; the “DV 90, average of batches” value was found to be 14.4 μm. Besides, in data set [2] (listed as BDC-G-02C), the “DV 10” value is listed as 1.5 μm, the “DV 50” value was 5.7 μm and the “DV 90” value is 13.8 μm. In data set [2] (listed as BDC-G-03C), the “DV 10” value is 1.8 μm, the “DV 50” value is reported as 6.8 μm and the “DV 90” value is listed as 16.4 μm. In addition, in data set [2] (listed as BDC-G-04C), the “DV 10” value is 1.4 μm, the “DV 50” value was 5.3 μm and the “DV 90” value worked out at 14.4 μm. Further, in data set [2] (listed as BDC-G-05C), the “DV 10” value amounted to 1.5 μm, the “DV 50” value came to 5.8 μm and the “DV 90” value came out at 14.6 μm. Besides, in data set [2] (listed as BDC-H-01C), the “DV 10” value amounted to 1.4 μm, the “DV 50” value came to 5.3 μm and the “DV 90” value came out at 12.8 μm. In addition, in data set [3], the cohesiveness entry was “very cohesive” and the flowability/flow characteristics result is recorded as “poor”.

The values above are taken from patent US20030032640A1, “Novel composition” (priority 2000, published 2003).
